Reference: publication PMC11982498 (Redox Biology, 2025)

Assays:
[1] = biological target: BCL-2 gene promoter i-motif; experiment: SPR binding to BCL-2 promoter i-motif; details: MES buffer pH 5.5, 25 °C
Protocol: SPR measurement was performed on a ProteOn XPR36 protein interaction array system (Bio-Rad Laboratories, Hercules, California, USA) using a Neutravidin-coated GLH sensor chip. BCL-2 i-motif binding analysis was performed following a published method without significant modification. For immobilization, 5′-biotin-labeled DNA oligomers at 800 nM annealed in 1 × MES buffer at pH 5.5 by heating at 95 °C for 5 min, were attached to a reptavidin-coated sensor chip. Compounds were prepared through serial dilution with flowing buffer (20 mM MES, 100 mM KCl, pH 5.5 for i-motif) in at least 6 concentrations, which were simultaneously injected at a flow rate of […] for a 120 s of association phase, followed by 250 s of dissociation phase at 25 °C. Langmuir model was used for fitting kinetic data, which was analyzed with ProteOn manager software. KD values were determined through equation KD = kd/ka. Compound A22 was used as a positive control, and other compounds were selected as candidates only if their KD values for binding to BCL-2 i-motif were similar to that of A22.

HRAS promoter i-motif = experiment: TO displacement assay, HRAS i-motif; assay type: binding
Protocol: DNA oligonucleotides were diluted to 1 μM with 1 × PBES buffer at pH 5.5, annealed at 95 °C for 10 min, cooled to room temperature, and stored at 4 °C for future use. TO dye (1 μM) was added to the DNA solution followed with incubation for 1 h. The spectra of 100 μL mixture with addition of different equivalent compounds at 25 °C were recorded based on fluorescence emission (λex = 480 nm).
TO displacement ratio (%) = (F0 − FC) / (F0 − FB) * 100.
F0 and FC were the fluorescence intensity of TO at 536 nm with DNA before and after adding compounds, respectively. FB was the fluorescence intensity of TO at 536 nm with buffer only.

[2] = tested on: BCL-2 gene transcription in brain of APP/PS1 mice; experiment: Real-time RT-PCR of mice brain, BCL-2; assay type: in vivo; details: for F = 2^-∆∆Ct (relative expression fold), BCL-2: relative to WT
Protocol: Five months old male APP/PS1 mice, weighing 25–33 g, were purchased from Guangdong Medical Laboratory Animal Center and housed in the Laboratory Animal Center of Sun Yat-sen University (Guangzhou, China) for experimentation. […] The mice were housed in a specific pathogen-free environment with a controlled temperature of 22 ± 1 °C and a 12-h dark/light cycle. The mice were fed with a standard diet, and 30 mice were randomly divided into 6 groups (N = 5). […] Behavioral experiments were then conducted, and tissue specimens were collected for biochemical analysis.
^a -∆∆Ct = -[(Ct value of genes in treated sample - Ct value of genes in control) - (Ct value of β-actin in treated sample - Ct value of β-actin in control)]. ^b F: The relative expression fold.
Following sample homogenization, chloroform was added, and the solution was allowed to have phase separation into an upper aqueous layer (containing RNA), an interphase, and a lower organic layer (containing DNA and proteins). RNA was precipitated from the aqueous phase using isopropanol, while DNA was precipitated from the aqueous-organic interphase using ethanol.
Quantitative real-time polymerase chain reaction (qRT-PCR) was performed using the 2× RealStar SYBR Mixture (GenStar, Cat# A301-10, Guangzhou, China) on a LightCycler 480 II real-time PCR system (Roche, USA). Data were analyzed using the 2^−ΔΔCt method. Actin served as the internal control, and relative mRNA levels were normalized accordingly.

SH-SY5Y cells = experiment: JC-1 / Mito-tracker / H2DCFDA / Ca2+ staining in Aβ1-42 induced cell model; assay type: cell-based; details: 25 μM Aβ1-42 induced model
Protocol: SH-SY5Y cells were plated on 96 well plates. After 24h treatment with or without B14 in 25 μM Aβ1-42 induced cell model, the cells were washed for three times with cold PBS. Then cells were incubated with Hoechst 33342 solution (Sigma, 10 μg/mL) and H2DCFDA probe (10 μM, sigma), as well as Mito-tracker deep red (100 nM, sigma) for 10 min at 37 °C in the dark. All the samples were photographed by using FV3000 (Olympus). SH-SY5Y cells were plated on 6 well plates. After 24h treatment with B14 in 25 μM Aβ1-42 induced cell model, cells were incubated with JC-1 (5 μg/mL, sigma) for 30 min at 37 °C in the dark. Fluorescence detection was carried out by using EVOS FL Auto.

O=C(CCN1CCOCC1)Nc1ccc2c(c1)c(=O)c1cc(NC(=O)CCN3CCOCC3)ccc1n2-c1ccc2occc2c1 [Compound B14]
Kd [1]: 2.13 µM | TO displacement ratio (HRAS promoter i-motif): 16% | -∆∆Ct, BCL-2 ([2]; 10 mg/kg): 0.39 | F = 2^-∆∆Ct (relative expression fold), BCL-2 ([2]; 10 mg/kg): 0.76 | -∆∆Ct, BCL-2 ([2]; 20 mg/kg): 0.17 | F = 2^-∆∆Ct (relative expression fold), BCL-2 ([2]; 20 mg/kg): 0.88 | -∆∆Ct, BCL-2 ([2]; 40 mg/kg): -0.01 | F = 2^-∆∆Ct (relative expression fold), BCL-2 ([2]; 40 mg/kg): 1.00 | intracellular Ca^2+ (Fluo-5AM) (SH-SY5Y cells): could modulate aberrantly metabolized Ca^2+ in model cells in a dose-dependent manner | oxidative stress (H2DCFDA) and mitochondrial number (MitoTracker) (SH-SY5Y cells): could attenuate oxidative stress without changing mitochondrial number | red/green fluorescence intensity ratio (JC-1, mitochondrial membrane potential) (SH-SY5Y cells): could reduce the occurrence of early apoptosis
